Assay results from ChEMBL document CHEMBL4007475, “Green synthesis of novel spiro-indenoquinoxaline derivatives and their cholinesterases inhibition activity” (Bioorg Med Chem, 2017).

Tests used:
Cholinesterase = Cholinesterase (Homo sapiens, UniProt P06276); assay: Inhibition of butyrylcholinesterase (unknown origin) using acetylthiocholine as substrate preincubated for 20 mins followed by substrate addition by Ellmans method
Homo sapiens [1] = species on record: Homo sapiens; assay: Selectivity index, ratio of IC50 for acetylcholinesterase (unknown origin) to IC50 for butyrylcholinesterase (unknown origin)
Acetylcholinesterase = Acetylcholinesterase (Homo sapiens, UniProt P22303); assay: Inhibition of acetylcholinesterase (unknown origin) using acetylthiocholine as substrate preincubated for 20 mins followed by substrate addition by Ellmans method
Homo sapiens [2] = species on record: Homo sapiens; assay: Selectivity index, ratio of IC50 for butyrylcholinesterase (unknown origin) to IC50 for acetylcholinesterase (unknown origin)
HepG2 = assay: Cytotoxicity against human HepG2 cells after 48 hrs by MTT assay; format: cell-based; details: HepG2, 48 h
Homo sapiens [3] = species on record: Homo sapiens; assay: Selectivity for acetylcholinesterase (unknown origin) over butyrylcholinesterase (unknown origin)

Chain of Cholinesterase (P06276 whole entry): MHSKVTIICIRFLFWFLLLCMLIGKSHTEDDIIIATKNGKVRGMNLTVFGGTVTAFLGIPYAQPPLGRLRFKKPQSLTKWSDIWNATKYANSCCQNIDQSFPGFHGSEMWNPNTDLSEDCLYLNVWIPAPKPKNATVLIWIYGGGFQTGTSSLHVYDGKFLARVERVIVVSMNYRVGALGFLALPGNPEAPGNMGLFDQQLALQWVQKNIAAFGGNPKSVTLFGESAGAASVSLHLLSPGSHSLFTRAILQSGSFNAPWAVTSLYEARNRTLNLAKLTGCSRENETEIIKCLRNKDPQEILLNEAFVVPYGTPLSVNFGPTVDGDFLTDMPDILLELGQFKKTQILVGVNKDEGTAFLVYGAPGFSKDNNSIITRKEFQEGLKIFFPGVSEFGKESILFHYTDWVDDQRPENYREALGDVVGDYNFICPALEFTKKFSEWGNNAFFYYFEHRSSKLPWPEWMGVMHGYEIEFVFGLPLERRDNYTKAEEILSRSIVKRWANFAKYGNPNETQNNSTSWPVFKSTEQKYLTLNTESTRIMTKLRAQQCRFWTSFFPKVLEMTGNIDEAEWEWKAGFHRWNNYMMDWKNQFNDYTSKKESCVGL
Chain of Acetylcholinesterase (P22303 whole entry): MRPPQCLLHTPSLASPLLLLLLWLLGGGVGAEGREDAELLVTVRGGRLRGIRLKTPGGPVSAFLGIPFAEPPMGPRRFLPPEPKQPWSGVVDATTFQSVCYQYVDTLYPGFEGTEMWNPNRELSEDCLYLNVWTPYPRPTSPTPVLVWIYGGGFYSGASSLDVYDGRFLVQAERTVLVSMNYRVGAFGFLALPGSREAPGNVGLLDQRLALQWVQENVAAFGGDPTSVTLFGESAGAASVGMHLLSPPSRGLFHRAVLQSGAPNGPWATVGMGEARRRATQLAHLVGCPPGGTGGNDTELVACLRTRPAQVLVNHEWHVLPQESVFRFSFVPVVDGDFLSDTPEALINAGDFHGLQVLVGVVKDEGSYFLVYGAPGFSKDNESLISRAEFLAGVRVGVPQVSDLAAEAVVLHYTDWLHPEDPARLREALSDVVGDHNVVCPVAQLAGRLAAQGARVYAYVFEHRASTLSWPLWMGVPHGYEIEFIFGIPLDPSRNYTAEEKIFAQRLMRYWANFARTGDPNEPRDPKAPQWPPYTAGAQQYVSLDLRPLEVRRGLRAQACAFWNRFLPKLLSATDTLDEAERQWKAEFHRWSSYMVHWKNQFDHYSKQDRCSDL

Row | Compound | IC50 (Cholinesterase) [µM] | Ratio IC50 (Homo sapiens [1]) | IC50 (Acetylcholinesterase) [µM] | Ratio IC50 (Homo sapiens [2]) | IC50 (HepG2) [µM] | Selectivity ratio (Homo sapiens [3])
1 | N#CC1=C(N)N(Cc2ccccc2)C(NCc2ccccc2)=C([N+](=O)[O-])C12c1ccccc1-c1nc3ccc([N+](=O)[O-])cc3nc12 (stereo unspecified) | 9.1 | 0.483 | 4.4 | 2.07 | 167 | 
2 | Cc1cc2nc3c(nc2cc1C)C1(C(C#N)=C(N)N2CCNC2=C1[N+](=O)[O-])c1ccccc1-3 (stereo unspecified) | 7.3 | 0.904 | 6.6 | 1.11 | 176 | 
3 | Cc1cc2nc3c(nc2cc1C)C1(C(C#N)=C(N)N2CC(C)(C)CNC2=C1[N+](=O)[O-])c1ccccc1-3 (stereo unspecified) | 8.8 | 0.454 | 4 | 2.2 | 180 | 
4 | CC1(C)CNC2=C([N+](=O)[O-])C3(C(C#N)=C(N)N2C1)c1ccccc1-c1nc2ccccc2nc13 (stereo unspecified) | 9.8 | 0.438 | 4.3 | 2.28 | 184 | 
5 | N#CC1=C(N)N2CCNC2=C([N+](=O)[O-])C12c1ccccc1-c1nc3ccc([N+](=O)[O-])cc3nc12 (stereo unspecified) | 9.6 | 0.677 | 6.5 | 1.48 | 174 | 
6 | N#CC1=C(N)N2CCCNC2=C([N+](=O)[O-])C12c1ccccc1-c1nc3ccc([N+](=O)[O-])cc3nc12 (stereo unspecified) | 9.7 | 0.402 | 3.9 | 2.49 | 161 | 
7 | Cc1cc2nc3c(nc2cc1C)C1(C(C#N)=C(N)N(Cc2ccccc2)C(NCc2ccccc2)=C1[N+](=O)[O-])c1ccccc1-3 (stereo unspecified) | 8.9 | 0.651 | 5.8 | 1.53 | 174 | 
8 | CC1(C)CNC2=C([N+](=O)[O-])C3(C(C#N)=C(N)N2C1)c1ccccc1-c1nc2ccc([N+](=O)[O-])cc2nc13 (stereo unspecified) | 10.1 | 0.356 | 3.6 | 2.81 | 169 | 
9 | N#CC1=C(N)N2CCCNC2=C([N+](=O)[O-])C12c1ccccc1-c1nc3ccccc3nc12 (stereo unspecified) | 10.2 | 0.411 | 4.2 | 2.43 | 174 | 
10 | N#CC1=C(N)N(Cc2ccccc2)C(NCc2ccccc2)=C([N+](=O)[O-])C12c1ccccc1-c1nc3ccccc3nc12 (stereo unspecified) | 8.6 | 0.616 | 5.3 | 1.62 | 190 | 
11 | N#CC1=C(N)N2CCNC2=C([N+](=O)[O-])C12c1ccccc1-c1nc3ccccc3nc12 (stereo unspecified) | 8.4 | 0.761 | 6.4 | 1.31 | 194 | 
12 | Cc1cc2nc3c(nc2cc1C)C1(C(C#N)=C(N)N2CCCNC2=C1[N+](=O)[O-])c1ccccc1-3 (stereo unspecified) | 9.5 | 0.6 | 5.7 | 1.67 | 171 | 
13 | COc1cc2c(cc1OC)C(=O)C(CC1CCN(Cc3ccccc3)CC1)C2 (stereo unspecified) |  |  |  |  |  | 10000
